Test results: patent publication US10829501B2 (BRISTOL-MYERS SQUIBB COMPANY, priority 2016, dated 2020)
Counter-ions that a name gives are not always drawn.

The molecules below were run against ROCK2 (Homo sapiens, UniProt O75116) (assay: ROCK2 kinase inhibition assay (LABCHIP 3000 Reader, FITC peptide substrate)). Settings: not given.
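Also: rho kinase reaction read by separating phosphorylated from unphosphorylated peptide on chip, with inhibition of kinase activity computed per concentration across a dose-response series.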

Chain of ROCK2 (O75116 whole entry, species assumed): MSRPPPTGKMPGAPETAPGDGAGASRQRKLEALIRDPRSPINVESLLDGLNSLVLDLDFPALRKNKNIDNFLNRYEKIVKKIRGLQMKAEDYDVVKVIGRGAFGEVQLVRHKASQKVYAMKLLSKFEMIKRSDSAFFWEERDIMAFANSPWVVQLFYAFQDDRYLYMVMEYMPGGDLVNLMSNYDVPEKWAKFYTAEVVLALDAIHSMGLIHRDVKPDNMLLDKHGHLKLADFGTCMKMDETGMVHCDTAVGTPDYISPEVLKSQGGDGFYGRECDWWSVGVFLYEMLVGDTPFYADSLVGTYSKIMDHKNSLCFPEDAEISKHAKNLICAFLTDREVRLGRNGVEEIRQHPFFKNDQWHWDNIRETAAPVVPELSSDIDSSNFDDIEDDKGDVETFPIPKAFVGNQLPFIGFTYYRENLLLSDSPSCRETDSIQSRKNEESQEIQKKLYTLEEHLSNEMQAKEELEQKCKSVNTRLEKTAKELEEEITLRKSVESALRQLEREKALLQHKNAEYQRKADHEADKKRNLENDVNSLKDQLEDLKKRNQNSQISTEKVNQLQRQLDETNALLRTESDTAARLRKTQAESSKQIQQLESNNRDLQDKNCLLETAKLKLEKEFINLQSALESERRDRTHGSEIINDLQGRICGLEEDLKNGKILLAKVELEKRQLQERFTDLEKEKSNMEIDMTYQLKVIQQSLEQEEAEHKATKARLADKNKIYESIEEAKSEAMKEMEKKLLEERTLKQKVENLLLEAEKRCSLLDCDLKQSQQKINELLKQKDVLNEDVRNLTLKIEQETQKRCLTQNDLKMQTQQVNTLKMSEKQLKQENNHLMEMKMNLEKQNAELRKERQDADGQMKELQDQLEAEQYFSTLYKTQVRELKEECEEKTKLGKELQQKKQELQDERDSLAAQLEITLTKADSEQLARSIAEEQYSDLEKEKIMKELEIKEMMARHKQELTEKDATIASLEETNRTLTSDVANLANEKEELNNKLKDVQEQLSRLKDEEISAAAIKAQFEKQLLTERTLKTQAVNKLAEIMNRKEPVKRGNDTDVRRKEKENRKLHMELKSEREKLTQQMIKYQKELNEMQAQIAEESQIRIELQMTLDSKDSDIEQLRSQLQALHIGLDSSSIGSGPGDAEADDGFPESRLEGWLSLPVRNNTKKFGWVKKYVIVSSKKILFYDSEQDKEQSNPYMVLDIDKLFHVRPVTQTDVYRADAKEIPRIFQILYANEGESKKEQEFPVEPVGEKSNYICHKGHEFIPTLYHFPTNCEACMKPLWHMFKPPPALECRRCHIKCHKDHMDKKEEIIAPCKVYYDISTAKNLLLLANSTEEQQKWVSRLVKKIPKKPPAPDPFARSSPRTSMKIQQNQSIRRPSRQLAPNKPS

IC50 [nM]	Structure (SMILES)
5 to 50	NC(=O)c1cccnc1O[C@H]1CC2(C[C@H](NC(=O)c3cnn4c(C5CC5)c(OCCC(F)(F)F)ccc34)C2)C1 (stereo partly drawn) [Example 107, N-((aR)-6-((3-carbamoylpyridin-2-yl)oxy)spiro[3.3]heptan-2-yl)-7-cyclopropyl-6-(3,3,3-trifluoropropoxy) pyrazolo[1,5-a]pyridine-3-carboxamide, trifluoroacetate]
< 5	CC(C)(O)COc1ccc2c(C(=O)N[C@H]3CC4(C3)C[C@H](Oc3ncccc3C(N)=O)C4)nn(C(F)F)c2c1 (stereo partly drawn) [Example 108, N-((aR)-6-((3-carbamoylpyridin-2-yl)oxy)spiro[3.3]heptan-2-yl)-1-(difluoromethyl)-6-(2-hydroxy-2-methylpropoxy)-1H-indazole-3-carboxamide, trifluoroacetate]
50 to 250	CS(=O)(=O)c1cccc(C(=O)N[C@H]2CC3(C2)C[C@H](Oc2ncccc2C(N)=O)C3)c1 (stereo partly drawn) [Example 109, 2-((aR)-6-(3-(methylsulfonyl)benzamido)spiro[3.3]heptan2-- yl)oxy)nicotinamide, trifluoroacetate]
5 to 50	CC(C)(C)c1ccnc(C(=O)N[C@H]2CC3(C2)C[C@H](Oc2ncccc2C(N)=O)C3)c1 (stereo partly drawn) [Example 110, 4-(tert-butyl)-N-((aR)-6-((3-carbamoylpyridin-2-yl)oxy)spiro[3.3]heptan-2-yl)picolinamide, bis-trifluoroacetate]
< 5	[2H]C([2H])([2H])n1cc(-c2ccc3c(C(=O)N[C@H]4CC5(C4)C[C@H](Oc4ncccc4C(N)=O)C5)nn(C(F)F)c3c2)cn1 (stereo partly drawn) [Example 111, 1-(difluoromethyl)-6-[1-(^2H3)methyl-1H-pyrazol-4-yl]-N-[(4s)-6-[(3-carbamoylpyridin-2-yl)oxy]spiro[3.3]heptan-2-yl]-1H-indazole-3-carboxamide, trifluoroacetate]
< 5	NC(=O)c1cccnc1O[C@H]1CC2(C[C@H](NC(=O)c3nn(C(F)F)c4cc(-c5cnn(C(F)F)c5)ccc34)C2)C1 (stereo partly drawn) [Example 112, N-((aR)-6-((3-carbamoylpyridin-2-yl)oxy)spiro[3.3]heptan-2-yl)-1-(difluoromethyl)-6-(1-(difluoromethyl)-1H-pyrazol-4-yl)-1H-indazole-3-caroxamide, trifluoroacettate]
250 to 2500	CC(C)(C)c1cc(C(=O)N[C@H]2CC3(C2)C[C@H](Oc2ncccc2C(N)=O)C3)n(CC(F)F)n1 (stereo partly drawn) [Example 113, 2-((aR)-6-(3-(tert-butyl)-1-(2,2-difluoroethyl)-1H-pyrazole-5-carboxamido)spiro[3.3]heptan-2-yl)oxy) nicotinamide, trifluoroacetate]
250 to 2500	CC(C)(C)c1cc(C(=O)N[C@H]2CC3(C2)C[C@H](Oc2ncccc2C(N)=O)C3)n(CCC(F)(F)F)n1 (stereo partly drawn) [Example 114, 2-((aR)-6-(3-(tert-butyl)-1-(3,3,3-trifluoropropyl)-1H-pyrazole-5-carboxamido)spiro [3.3]heptan-2-yl)oxy) nicotinamide, trifluoroacetate]
5 to 50	NC(=O)c1cccnc1O[C@H]1CC2(C[C@H](NC(=O)c3cnn4c(CCC(F)(F)F)c(OCCC(F)(F)F)ccc34)C2)C1 (stereo partly drawn) [Example 115, N-((aR)-6-((3-carbamoylpyrdin-2-yl)oxy)spiro[3.3]heptan-2-yl)-6-(3,3,3-trifluoropropoxy)-7-(3,3,3-trifluoropropyl) pyrazolo[1,5-a]pyridine-3-carboxamdie, trifluoroacetate]
5 to 50	NC(=O)c1cccnc1O[C@H]1CC2(C[C@H](NC(=O)c3cnn4cc(CCC(F)(F)F)ccc34)C2)C1 (stereo partly drawn) [Example 118, N-((aR)-6-((3-carbamoylpyridin-2-yl)oxy)spiro[3.3]heptan-2-yl)-6-(3,3,3-trifluoropropyl) pyrazolo[1,5-a[pyridine-3-carboxamide, trifluoroacetate]

The next lines start with the molecule.

Structure (SMILES)	IC50 [nM]
Cn1nc(-c2ccccc2)cc1C(=O)N[C@H]1CC2(C1)C[C@H](Oc1ncccc1C(N)=O)C2 (stereo partly drawn) [Example 89, 2-((aR)-6-(1-methyl-3-phenyl-1H-pyrazole-5-carboxamido)spiro[3.3]heptan-2-yl)oxy) nicotinamide, trifluoroacetate]	250 to 2500
Cn1nc(C(=O)N[C@H]2CC3(C2)C[C@H](Oc2ncccc2C(N)=O)C3)cc1OCCC(F)(F)F (stereo partly drawn) [Example 91, 2-((aR 6-(1-methyl-5-(3,3,3-trifluoropropoxy)-1H-pyrazole-3-carboxamido)spiro[3.3]heptan-2-yl)oxy) nicotinamide, trifluoroacetate]	50 to 250
Cc1nc(N2CCC(F)(F)C2)sc1C(=O)N[C@H]1CC2(C1)C[C@H](Oc1ncccc1C(N)=O)C2 (stereo partly drawn) [Example 92, N-((aR)-6-((3-carbamoylpyridin-2-yl)oxy)spiro[3.3]heptan-2-yl)-2-(3,3-difluoropyrrolidin-1-yl)-4-methylthiazole-5-carboxamide, trifluoroacetate]	50 to 250
CC(C)(O)Cn1nc(C(=O)N[C@H]2CC3(C2)C[C@H](Oc2ncccc2C(N)=O)C3)c2cc(Br)ccc21 (stereo partly drawn) [Example 93, 5-bromo-N-((aR)-6-((3-carbamoyl-pyridin-2-yl)oxy)spiro[3.3]heptan-2-yl)-1-(2-hydroxy-2-methylpropyl)-1H-indazole-3-carboxamide, trifluoroacetate]	5 to 50
Cn1nc(C(=O)N[C@H]2CC3(C2)C[C@H](Oc2ncccc2C(N)=O)C3)cc1OCC(F)F (stereo partly drawn) [Example 95, 2-((aR)-6-(5-(2,2-difluoroethoxy)-1-methyl-1H-pyrazole-3-carboxamido)spiro-[3.3]heptan-2-yl)oxy) nicotinamide, trifluoroacetate]	50 to 250
Cc1nc(-c2ccccc2)sc1C(=O)N[C@H]1CC2(C1)C[C@H](Oc1ncccc1C(N)=O)C2 (stereo partly drawn) [Example 96, N-((aR)-6-((3-carbamoylpyridin-2-yl)oxy)spiro[3.3]heptan-2-yl)-4-methyl-2-phenylthiazole-5-carboxamide, trifluoroacetate]	50 to 250
CC(C)(O)Cn1nc(C(=O)N[C@H]2CC3(C2)C[C@H](Oc2ncccc2C(N)=O)C3)c2ccc(OC(F)(F)F)cc21 (stereo partly drawn) [Example 98, N-((aR)-6-((3-carbamoylpyridin-2-yl)oxy)spiro[3.3]heptan-2-yl)-1-(2-hydroxy-2-methylpropyl)-6-(trifluoromethoxy)-1H-indazole-3-carboxamide, trifluoroacetate]	5 to 50
COc1ccc2c(C(=O)N[C@H]3CC4(C3)C[C@H](Oc3ncccc3C(N)=O)C4)cnn2c1CCC(F)(F)F (stereo partly drawn) [Example 99, N-((aR)-6-((3-carbamoylpyridin-2-yl)oxy)spiro[3.3]heptan-2-yl)-6-methoxy-7-(3,3,3-trifluoropropyl) pyrazolo[1,5-a]pyridine-3-carboxamide, trifluoroacetate]	5 to 50
Cn1cc(-c2c(OCC(C)(C)O)ccc3c(C(=O)N[C@H]4CC5(C4)C[C@H](Oc4ncccc4C(N)=O)C5)cnn23)cn1 (stereo partly drawn) [Example 101, N-((aR)-6-((3-carbamoylpyridin-2-yl)oxy)spiro[3.3]heptan-2-yl)-6-(2-hydroxy-2-methylpropoxy)-7-(1-methyl-1H-pyrazol-4-yl)pyrazolo[1,5-a]pyridine-3-carboxamide, trifluoroacetate]	5 to 50
CC(C)(O)Cn1nc(C(=O)N[C@H]2CC3(C2)C[C@H](Oc2ncccc2C(N)=O)C3)c2ccccc21 (stereo partly drawn) [Example 102, N-((aR)-6-((3-carbamoylpyridin-2-yl)oxy)spiro[3.3]heptan-2-yl)-1-(2-hydroxy-2-methylpropyl)-1H-indazole-3-carboamide, trifluoroacetate]	5 to 50
NC(=O)c1cccnc1O[C@H]1CC2(C[C@H](NC(=O)c3cc(C(F)(F)F)cc4[nH]c(=O)[nH]c34)C2)C1 (stereo partly drawn) [Example 104, N-((aR)-6-((3-carbamoylpyridin-2-yl)oxy)spiro[3.3]heptan-2-yl)-2-oxo-6-(trifluoromethyl)-2,3-dihydro-1H-benzo[d]imidazole-4-carboxamide, trifluoroacetate]	< 5
Cn1cc(-c2ccc3c(C(=O)N[C@H]4CC5(C4)C[C@H](Oc4ncccc4C(N)=O)C5)nn(C(F)F)c3c2)cn1 (stereo partly drawn) [Example 106, N-((aR)-6-((3-carbamoylpyridin-2-yl)oxy)spiro[3.3]heptan-2-yl)-1-(difluoromethyl)-6-(1-methyl-1H-pyrazol-4-yl)-1H-indazole-3-carboxamide, trifluoroacetate]	< 5

Same assay, conditions: read-out: ROCK2 Activity (ROCK2 IC50); 5 μM ATP, 1.5 μM peptide substrate, pH 7.5

Structure (SMILES)	IC50 [nM]
CC(C)(O)Cn1nc(C(=O)NC2CC3(C2)CC(Oc2ncccc2C(N)=O)C3)c2ccc(F)cc21 [Example 97, N-((aR)-6-((3-carbamoylpyridin-2-yl)oxy)spiro[3.3]heptan-2-yl)-6-fluoro-1-(2-hydroxy-2-methylpropyl)-1H-indazole-3-carboxamide, trifluoroacetate]	5 to 50
NC(=O)c1cccnc1O[C@H]1CC2(C[C@H](NC(=O)c3nn(C(F)F)c4cc(F)ccc34)C2)C1 (stereo partly drawn) [Example 103, N-((aR)-6-((3-carbamoylpyridin-2-yl)oxy)piro[3.3]heptan-2-yl-1-(difluoromethyl)-6-fluoro-1H-indazole-3-carboxamide, trifluoroacetate]	< 5
NC(=O)c1cccnc1OC1CC2(CC(NC(=O)c3nn(CCC(F)(F)F)c4cc(F)ccc34)C2)C1 [Example 105, N-((aR)-6-((3-carbamoylpyridin-2-yl)oxy)spiro[3.3]heptan-2-yl)-6-fluoro-1-(3,3,3-trifluoropropyl)-1H-indazole-3-carboxamide, trifluoroacetate]	< 5
NC(=O)c1cccnc1OC1CC2(CC(NC(=O)c3nn(CCC(F)(F)F)c4cc(OCCC(F)(F)F)ccc34)C2)C1 [Example 117, N-((aR)-6-((3-carbamoylpyridin-2-yl)oxy)spiro[3.3]heptan-2-yl)-6-(3,3,3-trifluoropropoxy)-1-(3,3,3-trifluoropropyl)-1H-indazole-3-carboxamide, trifluoroacetate]	5 to 50
CS(=O)(=O)c1cc(Br)cc(C(=O)NC2CC3(C2)CC(Oc2ncccc2C(N)=O)C3)c1 [Example 119, 2-((aR)-6-(3-bromo-5-(methylsulfonyl)benzamido)spiro[3.3]heptan-2-yl)oxy) nicotinamide, trifluoroacetate]	5 to 50
